Reference: patent publication US5605895A, “Cephalosporin antibiotics and processes for preparation thereof” (Lucky, Ltd., priority 1993, dated 1997)
≈ marks a conversion by molar mass, not a printed value. Where two headings read alike, the source gives them in different places.

Legend:
[1] = Pharmacokinetic properties in SD rats; format: in vivo; details: rat; SD rats (male), intravenous, 20 mg/kg; blood, biological assay (agar well method)
Protocol: The pharmacokinetic properties of the compound of the present invention were determined using SD rats (.male.) weighing 220 to 340 g. Specifically, the test samples were administered in intravenous route in an amount of 20 mg/kg to 2 to 5 test animals. Blood was taken from femoral vein every hours after the administration and then subjected to a biological assay using agar well method to measure the blood concentration. The results of pharmacokinetic properties calculated from the above blood concentration are described in the following Table 3.

P. aeruginosa 1912E = test: Minimum inhibitory concentration, agar dilution; format: cell-based; details: Pseudomonas aeruginosa, 20 h, read-out: Minimum Inhibitory Concentration
Protocol: (§1) The minimum inhibitory concentration was determined by diluting the test compounds according to 2-fold dilution, suspending them in M uller-Hinton agar medium, inoculating the test strains having 10^7 CFU per 1 ml into the medium and then culturing the medium at 37° C. for 20 hours.

S. marcescens 1826E = test: Minimum inhibitory concentration, agar dilution; format: cell-based; details: Serratia marcescens, Muller-Hinton agar, 10^7 CFU per ml, 37° C., 20 hours
Protocol: as §1

E. coli TEM1 1193E = test: Minimum inhibitory concentration, agar dilution; format: cell-based; details: Escherichia coli, TEM11193E, 20 h, read-out: Minimum Inhibitory Concentration
Protocol: as §1

K. aerogenes 1976E = test: Minimum inhibitory concentration, agar dilution; format: cell-based; details: Klebsiella aerogenes, Muller-Hinton agar, 10^7 CFU per ml, 37° C., 20 hours
Protocol: as §1

S. aureus giorigio = test: Minimum inhibitory concentration, agar dilution; format: cell-based; details: Staphylococcus aureus, Muller-Hinton agar, 10^7 CFU per ml, 37° C., 20 hours
Protocol: as §1

S. aureus 6538pA = test: Minimum inhibitory concentration, agar dilution; format: cell-based; details: Staphylococcus aureus, Muller-Hinton agar, 10^7 CFU per ml, 37° C., 20 hours
Protocol: as §1

S. typhimurium 14028A = test: Minimum inhibitory concentration, agar dilution; format: cell-based; details: Salmonella enterica, read-out: Minimum Inhibitory Concentration
Protocol: as §1

P. aeruginosa 6065Y = test: Minimum inhibitory concentration, agar dilution; format: cell-based; details: Pseudomonas aeruginosa, 20 h, read-out: Minimum Inhibitory Concentration
Protocol: as §1

P. aeruginosa 10145 = test: Minimum inhibitory concentration, agar dilution; format: cell-based; details: Pseudomonas aeruginosa, Muller-Hinton agar, 10^7 CFU per ml, 37° C., 20 hours
Protocol: as §1

A. calcoaceticus 15473A = test: Minimum inhibitory concentration, agar dilution; format: cell-based; details: Acinetobacter calcoaceticus, Muller-Hinton agar, 10^7 CFU per ml, 37° C., 20 hours
Protocol: as §1

E. coli 3190Y = test: Minimum inhibitory concentration, agar dilution; format: cell-based; details: Escherichia coli, read-out: Minimum Inhibitory Concentration
Protocol: as §1

E. coli 10536 = test: Minimum inhibitory concentration, agar dilution; format: cell-based; details: Escherichia coli; E. coli 10536; Muller-Hinton agar, 10^7 CFU per ml, 37° C., 20 hours; read-out: Minimum Inhibitory Concentration
Protocol: as §1

E. coli TEM5 3739E = test: Minimum inhibitory concentration, agar dilution; format: cell-based; details: Escherichia coli, TEM53739E, 20 h, read-out: Minimum Inhibitory Concentration
Protocol: as §1

E. coli TEM9 2639E = test: Minimum inhibitory concentration, agar dilution; format: cell-based; details: Escherichia coli, TEM92639E, 20 h, read-out: Minimum Inhibitory Concentration
Protocol: as §1

E. cloacae 1194E = test: Minimum inhibitory concentration, agar dilution; format: cell-based; details: Enterobacter cloacae, read-out: Minimum Inhibitory Concentration
Protocol: as §1

S. faecalis 29212A = test: Minimum inhibitory concentration, agar dilution; format: cell-based; details: Enterococcus faecalis, read-out: Minimum Inhibitory Concentration
Protocol: as §1

[2] = S. typhimurium 14028A, Muller-Hinton agar, 10^7 CFU per ml, 37° C., 20 hours
[3] = S. faecalis 29212A, Muller-Hinton agar, 10^7 CFU per ml, 37° C., 20 hours
[4] = E. coli 3190Y, Muller-Hinton agar, 10^7 CFU per ml, 37° C., 20 hours

C[n+]1ccc(N)nc1SCC1=C(C(=O)[O-])N2C(=O)C(NC(=O)/C(=N\OC(C(=O)O)c3ccc(O)c(O)c3)c3csc(N)n3)[C@H]2SC1 (stereo partly drawn) [I-5(a), 7-[(Z)-2-(2-aminothiazol-4-yl)-2-(α-carboxy-3,4-dihydroxybenzyloxyimino)acetamido]-3-(4-amino-1-methylpyrimidinium-2-yl)thiomethyl-3-cephem-4-carboxylate]
AUC [1]: 43600 ng·h/mL
half-life [1]: 39 min
MIC (P. aeruginosa 1912E): 0.5 µg/mL (≈ 0.726 µM)
MIC (S. marcescens 1826E): 0.5 µg/mL (≈ 0.726 µM)
MIC (E. coli TEM1 1193E): 0.063 µg/mL (≈ 0.0915 µM)
MIC (K. aerogenes 1976E): 0.25 µg/mL (≈ 0.363 µM)
MIC (S. aureus giorigio): 0.25 µg/mL (≈ 0.363 µM)
MIC (S. aureus 6538pA): 0.5 µg/mL (≈ 0.726 µM)
MIC (S. typhimurium 14028A; [2]): 0.031 µg/mL (≈ 0.045 µM)
MIC (P. aeruginosa 6065Y): 1 µg/mL (≈ 1.45 µM)
MIC (P. aeruginosa 10145): 0.5 µg/mL (≈ 0.726 µM)
MIC (A. calcoaceticus 15473A): 0.5 µg/mL (≈ 0.726 µM)
MIC (E. coli 3190Y; 3190Y, 20 h): 0.063 µg/mL (≈ 0.0915 µM)
MIC (E. coli 10536): 0.031 µg/mL (≈ 0.045 µM)
MIC (E. coli TEM5 3739E): 0.5 µg/mL (≈ 0.726 µM)
MIC (E. coli TEM9 2639E): 2 µg/mL (≈ 2.9 µM)
MIC (E. cloacae 1194E; 1194E, 20 h): 4 µg/mL (≈ 5.81 µM)
MIC (S. faecalis 29212A; [3]): 64 µg/mL (≈ 92.9 µM)

C[n+]1cc(C(=O)O)c(N)nc1SCC1=C(C(=O)[O-])N2C(=O)C(NC(=O)/C(=N\OC(C(=O)O)c3ccc(O)c(O)c3)c3csc(N)n3)[C@H]2SC1 (stereo partly drawn) [I-6(a), 7-[(Z)-2-(2-aminothiazol-4-yl)-2-(α-carboxy-3,4-dihydroxybenzyloxyimino)acetamido]-3-(4-amino-1-methyl-5-carboxypyrimidinium-2-yl)thiomethyl-3-cephem-4-carboxylate]
AUC [1]: 37800 ng·h/mL
half-life [1]: 32 min
MIC (P. aeruginosa 1912E): 0.25 µg/mL (≈ 0.341 µM)
MIC (S. marcescens 1826E): 1 µg/mL (≈ 1.36 µM)
MIC (E. coli TEM1 1193E): 0.063 µg/mL (≈ 0.086 µM)
MIC (K. aerogenes 1976E): 0.25 µg/mL (≈ 0.341 µM)
MIC (S. aureus giorigio): 2 µg/mL (≈ 2.73 µM)
MIC (S. aureus 6538pA): 2 µg/mL (≈ 2.73 µM)
MIC (S. typhimurium 14028A; [2]): 0.031 µg/mL (≈ 0.0423 µM)
MIC (P. aeruginosa 6065Y): 0.5 µg/mL (≈ 0.682 µM)
MIC (P. aeruginosa 10145): 0.25 µg/mL (≈ 0.341 µM)
MIC (A. calcoaceticus 15473A): 0.5 µg/mL (≈ 0.682 µM)
MIC (E. coli 3190Y; 3190Y, 20 h): 0.13 µg/mL (≈ 0.177 µM)
MIC (E. coli 10536): 0.031 µg/mL (≈ 0.0423 µM)
MIC (E. coli TEM5 3739E): 0.25 µg/mL (≈ 0.341 µM)
MIC (E. coli TEM9 2639E): 4 µg/mL (≈ 5.46 µM)
MIC (E. cloacae 1194E; 1194E, 20 h): 4 µg/mL (≈ 5.46 µM)
MIC (S. faecalis 29212A; 29212A, 20 h): 32 µg/mL (≈ 43.7 µM)

C[n+]1cc(CS(=O)(=O)O)c(N)nc1SCC1=C(C(=O)[O-])N2C(=O)C(NC(=O)/C(=N\OC(C(=O)O)c3ccc(O)c(O)c3)c3csc(N)n3)[C@H]2SC1 (stereo partly drawn) [I-7(a), 7-[(Z)-2-(2-aminothiazol-4-yl)-2-(α-carboxy-3,4-dihydroxybenzyloxyimino)acetamido]-3-(1-methyl-4-amino-5-sulfomethylpyrimidinium-2-yl)thiomethyl-3-cephem-4-carboxylate]
AUC [1]: 53100 ng·h/mL
half-life [1]: 48 min
MIC (S. marcescens 1826E): 1 µg/mL (≈ 1.28 µM)
MIC (E. coli TEM1 1193E): 0.13 µg/mL (≈ 0.166 µM)
MIC (K. aerogenes 1976E): 0.5 µg/mL (≈ 0.639 µM)
MIC (S. aureus giorigio): 2 µg/mL (≈ 2.55 µM)
MIC (S. aureus 6538pA): 2 µg/mL (≈ 2.55 µM)
MIC (S. typhimurium 14028A; TYPHIMURIUM, 20 h): 0.5 µg/mL (≈ 0.639 µM)
MIC (P. aeruginosa 10145): 0.25 µg/mL (≈ 0.319 µM)
MIC (A. calcoaceticus 15473A): 0.5 µg/mL (≈ 0.639 µM)
MIC (E. coli 3190Y; 3190Y, 20 h): 0.063 µg/mL (≈ 0.0805 µM)
MIC (E. coli 10536): 0.031 µg/mL (≈ 0.0396 µM)
MIC (E. coli TEM5 3739E): 0.5 µg/mL (≈ 0.639 µM)
MIC (E. coli TEM9 2639E): 4 µg/mL (≈ 5.11 µM)
MIC (E. cloacae 1194E; E. cloacae 1194E, Muller-Hinton agar, 10^7 CFU per ml, 37° C., 20 hours): 8 µg/mL (≈ 10.2 µM)
MIC (S. faecalis 29212A; 29212A, 20 h): 32 µg/mL (≈ 40.9 µM)

Nc1nc(C(=NOC(C(=O)O)c2ccc(O)c(O)c2)C(=O)NC2C(=O)N3C(C(=O)[O-])=C(CSc4nc(N)c5c([n+]4N)CCC5)CSC23)cs1 (stereo not drawn) [I-8(a), 7-[(Z)-2-(2-aminothiazol-4-yl)-2-(α-carboxy-3,4-dihydroxybenzyloxyimino)acetamido]-3-(1,4-diamino-1,5,6,7-tetrahydrocyclopentapyrimidin-2-yl) thiomethyl-3-cephem-4-carboxylate]
AUC [1]: 64500 ng·h/mL
half-life [1]: 53 min
MIC (P. aeruginosa 1912E): 0.5 µg/mL (≈ 0.685 µM)
MIC (S. marcescens 1826E): 0.5 µg/mL (≈ 0.685 µM)
MIC (E. coli TEM1 1193E): 0.063 µg/mL (≈ 0.0863 µM)
MIC (K. aerogenes 1976E): 0.13 µg/mL (≈ 0.178 µM)
MIC (S. aureus giorigio): 0.063 µg/mL (≈ 0.0863 µM)
MIC (S. aureus 6538pA): 0.5 µg/mL (≈ 0.685 µM)
MIC (S. typhimurium 14028A; TYPHIMURIUM, 20 h): 0.063 µg/mL (≈ 0.0863 µM)
MIC (P. aeruginosa 6065Y): 1 µg/mL (≈ 1.37 µM)
MIC (P. aeruginosa 10145): 0.5 µg/mL (≈ 0.685 µM)
MIC (A. calcoaceticus 15473A): 0.25 µg/mL (≈ 0.343 µM)
MIC (E. coli 3190Y; [4]): 0.031 µg/mL (≈ 0.0425 µM)
MIC (E. coli 10536): 0.031 µg/mL (≈ 0.0425 µM)
MIC (E. coli TEM5 3739E): 0.5 µg/mL (≈ 0.685 µM)
MIC (E. coli TEM9 2639E): 1 µg/mL (≈ 1.37 µM)
MIC (E. cloacae 1194E; 1194E, 20 h): 2 µg/mL (≈ 2.74 µM)
MIC (S. faecalis 29212A; 29212A, 20 h): 16 µg/mL (≈ 21.9 µM)

Cn1c(N)n[n+]2c(SCC3=C(C(=O)[O-])N4C(=O)C(NC(=O)C(=NOC(C(=O)O)c5ccc(O)c(O)c5)c5csc(N)n5)[C@H]4SC3)nc(N)cc12 (stereo partly drawn) [I-10(a), 7-[(Z)-2-(2-aminothiazol-4-yl)-2-(α-carboxy-3,4-dihydroxybenzyloxyimino)acetamido]-3-(2,7-diamino-1-methyl[1,2,4]triazolo[1,5-c]pyrimidinium-5-yl)thiomethyl-3-cephem-4-carboxylate]
AUC [1]: 66000 ng·h/mL
half-life [1]: 58 min
MIC (P. aeruginosa 1912E): 0.5 µg/mL (≈ 0.672 µM)
MIC (S. marcescens 1826E): 0.25 µg/mL (≈ 0.336 µM)
MIC (E. coli TEM1 1193E): 0.063 µg/mL (≈ 0.0847 µM)
MIC (K. aerogenes 1976E): 0.13 µg/mL (≈ 0.175 µM)
MIC (S. aureus giorigio): 0.25 µg/mL (≈ 0.336 µM)
MIC (S. aureus 6538pA): 0.5 µg/mL (≈ 0.672 µM)
MIC (S. typhimurium 14028A; TYPHIMURIUM, 20 h): 0.063 µg/mL (≈ 0.0847 µM)
MIC (P. aeruginosa 6065Y): 0.5 µg/mL (≈ 0.672 µM)
MIC (P. aeruginosa 10145): 0.25 µg/mL (≈ 0.336 µM)
MIC (A. calcoaceticus 15473A): 0.5 µg/mL (≈ 0.672 µM)
MIC (E. coli 3190Y; [4]): 0.031 µg/mL (≈ 0.0417 µM)
MIC (E. coli 10536): 0.016 µg/mL (≈ 0.0215 µM)
MIC (E. coli TEM5 3739E): 0.25 µg/mL (≈ 0.336 µM)
MIC (E. coli TEM9 2639E): 1 µg/mL (≈ 1.34 µM)
MIC (E. cloacae 1194E; 1194E, 20 h): 1 µg/mL (≈ 1.34 µM)
MIC (S. faecalis 29212A; [3]): 8 µg/mL (≈ 10.8 µM)
